Experimental data taken from patent publication US8568784B2, “Nanoparticles for delivery of active agents” (Morehouse School of Medicine, priority 2006, dated 2013).

Assay: Percent entrapment and loading studies of particles
Format: physicochemical
Details: entrapped in PCL-XP particles

Question: For `N.N.[Cl][Pt][Cl]` [cisplatin], which entrapment efficiency is on record?
Answer: The entrapment efficiency was roughly 100%.

Question: What about the “loading per weight of the particles” value of the same compound?
Answer: The value was roughly 20%.

Question: With `[Gd]` [gadolinium] as the compound, how does the entrapment efficiency read?
Answer: Its entrapment efficiency is roughly 100%.

Question: And the “loading per weight of the particles” value?
Answer: Its value is roughly 20%.

Question: Which entrapment efficiency does the source give for `O=S(=O)([O-])c1cc(S(=O)(=O)Cl)ccc1C1=c2cc3c4c(c2Oc2c1cc1c5c2CCCN5CCC1)CCC[N+]=4CCC3` [TR, Texas Red] here?
Answer: Its entrapment efficiency is roughly 100%.

Question: What about the “loading per weight of the particles” value of the same compound?
Answer: The value was roughly 20%.
